# B1: ExbD: wild-type E. coli ExbD protein, plasmid-encoded (pKP1194, exbD in pBAD24) (protein, listed as Escherichia coli)
# chain: MAMHLNENLDDNGEMHDINVTPFIDVMLVLLIIFMVAAPLAIVDVKVNLPASTSTPQPRPEKPVYLSVKADNSMFIGNDPVTDETMITALNALTEGKKDITIFFRADKTVDYETLMKVMDTLHQAGYLKIGLVGEETAKAK
# Assays:
# Type in all cases: cell-based, Escherichia coli
# TonB-ExbD complex = test: Formaldehyde crosslinking in spheroplasts; conditions: CCCP-treated W3110 spheroplasts, 60 μM
# Experimental: Formaldehyde crosslinking in spheroplasts. Spheroplasts were prepared as above for standard assays and treated with DMSO solvent or 60 μM CCCP. A CCCP-treated sample was also treated with proteinase K for 15 min as described above. For formaldehyde crosslinking, spheroplasts were pelleted and resuspended in 100 mM sodium phosphate buffer, pH 6.8 containing 0.25M sucrose and 2 mM MgSO4. For CCCP-treated spheroplasts, CCCP was maintained in the crosslinking buffer. Samples were treated with 1% monomeric paraformaldehyde (inverting to mix) for 15 min at room temperature. Pellets were solubilized at 60° C. in Laemmli sample buffer.
# TonB = test: Proteinase K accessibility assay in spheroplasts; conditions: wild-type W3110 spheroplasts; pmf collapsed; 60 μM CCCP or 10 mM DNP
# From the text: Proteinase K accessibility assays. For reversibility assays, spheroplasts were generated from wild-type cells (W3110) and treated with CCCP to collapse pmf. […] Samples were harvested and treated with proteinase K or left untreated. […] To re-establish pmf for the remaining sample, the proteinase K untreated, CCCP-treated spheroplasts were subsequently pelleted, washed, and resuspended in buffer without CCCP. These washed spheroplasts were divided in half. One sample was re-treated with CCCP, and one was treated with solvent only (DMSO). Both were then treated with proteinase K. As a control, whole cells were also treated with proteinase K or left untreated. All manipulations occurred at 4° C.
# For standard assays, spheroplasts were prepared and treated with proteinase K as described previously (Larsen et al, 1999, Mol. Microbiol. 31, 1809-1824). The effect of protonophores was examined after treatment of spheroplasts with 60 μM carbonylcyanide-m-chlorophenylhydrazone (CCCP) or 10 mM DNP compared to an equal volume of solvent only, dimethyl sulfoxide (DMSO). After limited proteolysis, TCA precipitated samples were visualized on immunblots of 11% or 15% SDS polyacrylamide gels with TonB-specific monoclonal antibodies or ExbD-specific polyclonal antibodies, respectively. All manipulations occurred at 4° C.
# [1] = tested on: ferrichrome-mediated iron transport; test: [55Fe]-ferrichrome uptake, ExbD cys substitutions, with or without CuoP treatment; conditions: 0.03 mM CuoP, cells in unsupplemented 1xM9
# [2] = tested on: ferrichrome-mediated iron transport; test: as above; conditions: 0.03 mM CuoP in supplemented 1xM9
# Experimental: Since CuoP treatment catalyzed almost 100% dimer formation for some of the cys substitutions, attempts were made to determine activity of the dimeric form. […] The amount of CuoP was reduced 10-fold to 0.03 mM and cells had to be suspended in fully supplemented M9 medium as described in Experimental Procedures.
# Activity assays. Initial rates of [^55Fe]-ferrichrome uptake were determined. For assays where cultures were treated with copper-(1,10-phenanthroline)3, harvested cells were pelleted, resuspended in 1×M9 supplemented as described above (no sodium propionate added), and treated with an equal volume 0.06 mM CuoP ([final] 0.03 mM) or 0.5 mM sodium phosphate buffer, pH 7.4 (buffer only) for 5 min, at 37° C. with aeration. Cells were pelleted, and the standard iron transport protocol was followed starting with resuspension in the assay medium.
# In all assays the CuoP solution was removed and assays carried out in identical media, but the medium present during the 5 min CuoP treatment was important and differentially affected activity of a wild-type strain.
# [3] = tested on: 55Fe-ferrichrome transport; test: Transport of 55Fe-loaded ferrichrome (ExbD deletion variants)
# Experimental: For assays in 1×M9, 37 μM Fe (proteinase K accessibility, [^55Fe]-ferrichrome uptake, formaldehyde crosslinking, and sucrose density gradient fractionation), the following percentages of arabinose were added at subculture to induce expression of ExbD variants near native levels of ExbD: pKP660=no inducer, pKP761=0.0008%, pKP760=0.0008%, pKP759=0.3% glucose (to repress basal levels of overexpression), pKP758=0.002% glucose (to repress basal levels of overexpression), pKP762=0.0006%, pKP757=0.0007%, pKP756=0.006%, pKP755=0.008%, pKP754=0.15%, pKP753=0.18%, pKP752=0.2%, pKP763=0.18%, pKP764=0.2%, pKP724=0.006%.
# Activity assays: Spot titer assays were performed. Initial rates of [^55Fe]-ferrichrome uptake were determined.
molecule,measurement,setting,value
"N#CC(C#N)=NNc1cccc(Cl)c1 [CCCP, carbonylcyanide-m-chlorophenylhydrazone]",TonB-ExbD formaldehyde crosslinked complex,TonB-ExbD complex,not detected
same,TonB conformation (proteinase K sensitivity) after protonophore treatment,TonB,detection of the previously observed proteinase K resistant conformation of TonB
O=[N+]([O-])c1ccc(O)c([N+](=O)[O-])c1 [DNP],TonB conformation (proteinase K sensitivity) after protonophore treatment,TonB,Identical results
"copper-(1,10-phenanthroline)3 [CuoP, reference compound]",iron transport of a wild-type strain remaining after CuoP treatment,[1],about 25%
same,effect on iron transport activity of a wild-type strain,[2],did not inhibit activity
B1,Initial Rate of Transport,"[3]; 55Fe-loaded ferrichrome, plasmid-encoded ExbD variant in strain KP1522",672.2 ± 15.97
same,% Wild-type Activity,"[3]; initial rate of variant strain divided by initial rate of wild-type strain x 100, strain KP1522",100%
